Test results as given in the supplement of paper PMC10307832.

Tests used:
Assay in all cases: relative viability (nuclei count vs DMSO), 5 days (fraction); higher = more cells survive
[1] = compound: C1/C(=C\C2=CC=CS2)/C(=O)/C(=C/C3=CC=CS3)/C1 + NC(=O)Nc1cc(-c2cccc(F)c2)sc1C(=O)N[C@H]1CCCNC1 [AZD7762] (partner 0.2 µM)
Method in brief: (§1)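 Lung cancer cell lines were seeded in 1536-well plates and dosed by pin tool the next day, with either a single drug or a fixed anchor-drug dose combined with five library-drug doses (not always all listed) spaced in √10 steps. Five days later, one step fixed the cells and stained their nuclei (final 0.05% Triton X-100, 1% formaldehyde, 1 ug/ml Hoechst), and nuclei were counted on 4× images. Relative viability is the nuclei count in treated wells divided by the count in vehicle wells, and each value is the median of duplicate plates.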

TPCA-1 + Palbociclib = compound: C1=CC(=CC=C1C2=CC(=C(S2)NC(=O)N)C(=O)N)F [TPCA-1] + CC(=O)c1c(C)c2cnc(Nc3ccc(N4CCNCC4)cn3)nc2n(C2CCCC2)c1=O [Palbociclib] (partner 0.5 µM)
Method in brief: as §1

TPCA-1 + Linsitinib = compound: C1=CC(=CC=C1C2=CC(=C(S2)NC(=O)N)C(=O)N)F [TPCA-1] + C[C@]1(O)C[C@@H](c2nc(-c3ccc4ccc(-c5ccccc5)nc4c3)c3c(N)nccn32)C1 [Linsitinib] (partner 1 µM)
Method in brief: as §1

[2] = compound: C[C@]12O[C@H](C[C@]1(O)CO)n1c3ccccc3c3c4c(c5c6ccccc6n2c5c31)CNC4=O [Lestaurtinib] + CC(=O)c1c(C)c2cnc(Nc3ccc(N4CCNCC4)cn3)nc2n(C2CCCC2)c1=O [Palbociclib] (partner 0.5 µM)
Method in brief: as §1

Cell Line | relative viability ([1]; first compound 0.2 µM) | relative viability ([1]; first compound 0.6325 µM) | relative viability ([1]; first compound 2 µM) | relative viability ([1]; first compound 6.325 µM) | relative viability ([1]; first compound 20 µM) | relative viability (TPCA-1 + Palbociclib; first compound 0.04 µM) | relative viability (TPCA-1 + Palbociclib; first compound 0.1265 µM) | relative viability (TPCA-1 + Palbociclib; first compound 0.4 µM) | relative viability (TPCA-1 + Palbociclib; first compound 1.265 µM) | relative viability (TPCA-1 + Palbociclib; first compound 4 µM) | relative viability (TPCA-1 + Linsitinib; first compound 0.04 µM) | relative viability (TPCA-1 + Linsitinib; first compound 0.1265 µM) | relative viability (TPCA-1 + Linsitinib; first compound 0.4 µM) | relative viability (TPCA-1 + Linsitinib; first compound 1.265 µM) | relative viability (TPCA-1 + Linsitinib; first compound 4 µM) | relative viability ([2]; first compound 0.005 µM) | relative viability ([2]; first compound 0.01581 µM) | relative viability ([2]; first compound 0.05 µM) | relative viability ([2]; first compound 0.1581 µM) | relative viability ([2]; first compound 0.5 µM)
NCI-H1915 | 0.73 | 0.67 | 0.689 | 0.642 | 0.677 | 0.568 | 0.475 | 0.515 | 0.516 | 0.465 | 1.16 | 1.12 | 1.15 | 1.04 | 1.03 | 0.564 | 0.719 | 0.481 | 0.323 | 0.231
NCI-H1944 | 0.502 | 0.461 | 0.526 |  | 0.442 | 0.354 | 0.336 | 0.293 | 0.319 | 0.225 | 1.24 | 1.13 | 1.2 | 1.13 | 0.987 | 0.334 | 0.332 | 0.286 | 0.248 | 0.292
NCI-H1975 | 0.826 | 0.801 | 0.656 | 0.618 | 0.763 | 0.593 | 0.532 | 0.613 | 0.552 | 0.142 | 0.93 | 0.916 | 0.971 | 0.918 | 0.946 | 0.617 | 0.632 | 0.406 | 0.347 | 0.25
NCI-H1993 | 0.783 | 0.747 | 0.958 | 0.62 | 0.499 | 0.726 | 0.531 | 0.645 | 0.717 | 0.534 | 0.711 |  | 0.748 | 0.686 | 0.622 | 0.689 | 0.27 | 0.717 | 0.569 | 0.411
NCI-H2085 | 1.03 | 1.05 | 0.926 | 0.932 | 0.932 |  | 0.47 | 0.489 | 0.443 | 0.46 | 0.901 | 0.859 | 1 | 0.912 | 0.926 | 0.445 | 0.489 | 0.471 | 0.463 | 0.475
NCI-H2087 | 1.46 | 1.29 | 1.18 | 1.17 | 1.25 | 0.253 | 0.241 | 0.218 | 0.237 | 0.155 | 0.989 | 0.938 | 1.03 | 0.836 | 0.553 | 0.167 | 0.252 | 0.167 | 0.17 | 0.207
NCI-H2126 | 1.04 | 0.933 | 1.08 | 0.862 | 1 | 0.388 | 0.382 | 0.364 | 0.355 | 0.3 | 0.752 | 0.657 | 0.709 | 0.724 | 0.595 | 0.339 | 0.372 | 0.388 | 0.357 | 0.339
NCI-H2347 | 0.788 | 0.696 | 0.866 | 0.65 | 0.792 | 0.457 | 0.462 | 0.427 | 0.424 | 0.461 | 1.14 | 1.02 | 0.899 | 0.931 | 0.903 | 0.433 | 0.438 | 0.535 | 0.48 | 0.501
